# In patent publication US12714715B2, “Agent for treating myopia, preventing myopia and/or suppressing myopia progression” (SANTEN PHARMACEUTICAL CO., LTD., priority 2020, dated 2026):
# Key:
# guinea pig myopia model = assay: Test on suppression of myopia progression (axial length elongation and refractive error) in guinea pig myopia model; type: in vivo, guinea pig (Slc:Hartley); settings: for Difference of axial lengths / Difference of refraction: 10 μL topical to goggled right eye once daily 14 days, right eye − left eye, average n=6; for Difference of axial lengths / Difference of refraction / Suppression rate of axial length elongation / Suppression rate of refraction / Suppression rate of refractive error: day 14; for Suppression rate of axial length elongation / Suppression rate of refraction / Suppression rate of refractive error: vs vehicle control group
# Method: According to the following procedures, the effect of AFDX0250 on the suppression of myopia progression (the axial length elongation and the refractive error) was evaluated.
# AFDX0250 was dissolved in purified water with a buffering agent and a tonicity agent to prepare 0.5% AFDX0250 solution. 1 mol/L sodium hydroxide reagent solution or dilute hydrochloric acid was added to the solution to adjust the pH thereof to neutral. Also, a buffering agent and a tonicity agent were dissolved in purified water to prepare a neutral vehicle. 9.8 mL of the vehicle was mixed with 0.2 mL of 0.5% AFDX0250 solution and stirred to prepare 0.01% AFDX0250 solution. 3 mL, 4 mL and 4.5 mL of the vehicles were mixed with 2 mL, 1 mL and 0.5 mL of 0.01% AFDX0250 solutions, respectively, and stirred to prepare 0.004%, 0.002% and 0.001% AFDX0250 solutions.
# A test tube with a diameter of 18 mm was cut off at the level of 10 mm from the bottom, and the cut-off bottom part was glued to one side of Velcro tape (about 20 mm square) with a hole of an appropriate diameter in the center with an adhesive agent to prepare a lens (goggle). 3-week-old guinea pigs (Slc:Hartley) (n=30) were obtained, and the prepared goggle was covered to the right eye of each guinea pig with an adhesive agent to induce myopia to the guinea pigs. The left eye thereof without goggle was used as control.
# The […] group, 0.004% AFDX0250 solution administration group, […] group (control group) (n=6 per group). In the AFDX0250 solution administration groups, 10 μL of the AFDX0250 solution in each concentration was topically administered to the right eye of each guinea pig once daily for 14 days from the day when the right eye was covered with the goggle (day 0) to day 13. In the control group, 10 μL of the vehicle was topically administered to the right eye of each guinea pig once daily for 14 days from the day when the right eye was covered with the goggle (day 0) to day 13. In the all groups, 10 μL of the vehicle was topically administered to the left eye at the same frequency of administration as that of each group daily for 14 days from day 0 to day 13. The guinea pigs were reared under a normal rearing condition.
# On day 14 from the myopia induction, the axial lengths of right and left eyeballs were measured with an ultrasound axial length measurement device ECHOSCAN US-500 (A-scan) (NIDEK CO., LTD.), and the refractions were measured with the auto refractometer AR-1a (NIDEK CO., LTD.). The difference of axial lengths and the suppression rate of the axial length elongation as well as the difference of refraction and the suppression rate of the refractive error were calculated according to the following formulae. The calculation was performed in Microsoft Excel. Difference of axial lengths (mm)=Axial length of right eye (mm)−Axial length of left eye (mm) Suppression rate of axial length elongation (%)=(1−Difference of axial lengths in AFDX0250 solution administration group/Difference of axial lengths in control group)×100 (Formula) Difference of refraction (D)=Refraction of right eye (D)−Refraction of left eye (D) Suppression rate of refractive error (%)=(1−Difference of refraction in AFDX0250 solution administration group/Difference of refraction in control group)×100 (Formula) (Test Result)
# AFDX0250 was dissolved in purified water with a buffering agent and a tonicity agent to prepare 0.5% AFDX0250 solution. 1 mol/L sodium hydroxide reagent solution or dilute hydrochloric acid was added to the solution to adjust the pH thereof to neutral. Also, a buffering agent and a tonicity agent were dissolved in purified water to prepare a neutral vehicle. 4 mL and 4.8 mL of vehicles were mixed with 1 mL and 0.2 mL of 0.5% AFDX0250 solutions, respectively, and stirred to prepare 0.1% and 0.02% of AFDX0250 solutions. Also, 4 mL of the vehicle was mixed with 1 mL of 0.02% AFDX0250 solution and stirred to prepare 0.004% AFDX0250 solution. […]
# guinea pigs = assay: Evaluation of mydriatic action (pupil diameter, pupillary light reflex) after repeated topical administration to one eye; type: in vivo, guinea pig; settings: for Pupil diameter before administration / Decreased pupillary light reflex / Maximum pupil diameter / Measurement time of maximum pupil diameter: 10 μL topical to left eye once daily 5 days; for Pupil diameter before administration: before administration on day 5, average of 3 guinea pigs; for Decreased pupillary light reflex / Measurement time of maximum pupil diameter: day 5; for Maximum pupil diameter: longest average diameter among measurement times on day 5
# Method: An atropine solution was repeatedly topically administered to one eye of a guinea pig to evaluate the effect of the solution on mydriasis.
# Atropine sulfate hydrate and glycerin were dissolved in water for injection to prepare 0.001%, 0.0003% and 0.0001% atropine solutions without adjusting the pH.
# Each of the prepared solutions was topically administered to the left eye of guinea pigs (the left eyes of 3 guinea pigs for each solution) in a volume of 10 μL once daily for 5 days. The pupil diameter of each guinea pig was measured before the administration on day 5 as well as 1, 2 and 4 hours after the administration to observe the pupillary light reflex. The measured pupil diameters of each guinea pig at each measurement time were averaged to obtain the average value. The obtained average value was defined as the average pupil diameter. Among each average pupil diameter at each measurement time, the longest diameter was defined as the maximum pupil diameter.
# [1] = Example 1, 0.001% solution, topical once daily 14 days
# [2] = Example 1, 0.002% solution, topical once daily 14 days
# [3] = Example 1, 0.004% solution, topical once daily 14 days
# [4] = Example 1, 0.01% solution, topical once daily 14 days
# [5] = Example 2, 0.004% solution, topical once daily 14 days
# [6] = Example 2, 0.02% solution, topical once daily 14 days
# [7] = Example 2, 0.1% solution, topical once daily 14 days
# [8] = Example 2, 0.5% solution, topical once daily 14 days
# [9] = Comparative Example 3, 0.0001% solution
# [10] = Comparative Example 3, 0.0003% solution
# [11] = Comparative Example 3, 0.001% solution
compound,measurement,setting,value
"CCN(CC)CC1CCCCN1CC(=O)N1c2ccccc2C(=O)Nc2cccnc21 (single isomer, unassigned; (+)) [AFDX0250, (+)-11-[2-[2-[(diethylamino)methyl]-1-piperidinyl]acetyl]-5,11-dihydro-6H-pyrido[2,3-b][1,4]benzodiazepin-6-one]",Difference of axial lengths,"guinea pig myopia model; Example 1, 0.001% solution",0.17 mm
same,Difference of refraction,"guinea pig myopia model; Example 1, 0.001% solution",−6.12 D
same,Suppression rate of axial length elongation,guinea pig myopia model; [1],15.85%
same,Suppression rate of refraction,guinea pig myopia model; [1],22.78%
same,Difference of axial lengths,"guinea pig myopia model; Example 1, 0.002% solution",0.09 mm
same,Difference of refraction,"guinea pig myopia model; Example 1, 0.002% solution",−2.78 D
same,Suppression rate of axial length elongation,guinea pig myopia model; [2],55.46%
same,Suppression rate of refraction,guinea pig myopia model; [2],64.95%
same,Difference of axial lengths,"guinea pig myopia model; Example 1, 0.004% solution",0.07 mm
same,Difference of refraction,"guinea pig myopia model; Example 1, 0.004% solution",−2.39 D
same,Suppression rate of axial length elongation,guinea pig myopia model; [3],63.39%
same,Suppression rate of refraction,guinea pig myopia model; [3],69.80%
same,Difference of axial lengths,"guinea pig myopia model; Example 1, 0.01% solution",0.06 mm
same,Difference of refraction,"guinea pig myopia model; Example 1, 0.01% solution",−3.63 D
same,Suppression rate of axial length elongation,guinea pig myopia model; [4],68.58%
same,Suppression rate of refraction,guinea pig myopia model; [4],54.19%
same,Difference of axial lengths,"guinea pig myopia model; Example 2, 0.004% solution",0.07 mm
same,Difference of refraction,"guinea pig myopia model; Example 2, 0.004% solution",−3.25 D
same,Suppression rate of axial length elongation,guinea pig myopia model; [5],66.85%
same,Suppression rate of refractive error,guinea pig myopia model; [5],59.27%
same,Difference of axial lengths,"guinea pig myopia model; Example 2, 0.02% solution",0.05 mm
same,Difference of refraction,"guinea pig myopia model; Example 2, 0.02% solution",−2.52 D
same,Suppression rate of axial length elongation,guinea pig myopia model; [6],74.16%
same,Suppression rate of refractive error,guinea pig myopia model; [6],68.43%
same,Difference of axial lengths,"guinea pig myopia model; Example 2, 0.1% solution",0.04 mm
same,Difference of refraction,"guinea pig myopia model; Example 2, 0.1% solution",−2.05 D
same,Suppression rate of axial length elongation,guinea pig myopia model; [7],79.21%
same,Suppression rate of refractive error,guinea pig myopia model; [7],74.35%
same,Difference of axial lengths,"guinea pig myopia model; Example 2, 0.5% solution",0.02 mm
same,Difference of refraction,"guinea pig myopia model; Example 2, 0.5% solution",−2.03 D
same,Suppression rate of axial length elongation,guinea pig myopia model; [8],88.48%
same,Suppression rate of refractive error,guinea pig myopia model; [8],74.64%
same,Effect on the axial length elongation and the refractive error (summary in words),"guinea pig myopia model; summary of Examples 1 and 2 (AFDX0250) and Comparative Examples 1 and 2 (AFDX0116), topical once daily 14 days",strongly suppressed the axial length elongation and the refractive error
same,"Mydriatic action (pupil diameter and pupillary light reflex, in words)","guinea pigs; guinea pig, in vivo",increased the pupil diameter and decreased the pupillary light reflex
"CN1[C@@H]2CC[C@H]1CC(OC(=O)C(CO)c1ccccc1)C2.CN1[C@@H]2CC[C@H]1CC(OC(=O)C(CO)c1ccccc1)C2.O.O=S(=O)(O)O (stereo partly shown) [atropine, Atropine sulfate hydrate]",Pupil diameter before administration,guinea pigs; [9],2.3 mm
same,Decreased pupillary light reflex,guinea pigs; [9],0/3
same,Maximum pupil diameter,guinea pigs; [9],2.8 mm
same,Pupil diameter before administration,guinea pigs; [10],3.0 mm
same,Decreased pupillary light reflex,guinea pigs; [10],1/3
same,Measurement time of maximum pupil diameter,guinea pigs; [10],1 h
same,Maximum pupil diameter,guinea pigs; [10],3.8 mm
same,"Mydriatic action (pupil diameter and pupillary light reflex, in words)","guinea pigs; Comparative Example 3, 0.001% and 0.0003% atropine solution administration groups",the increased pupil diameter and the decreased pupillary light reflex were found
same,Pupil diameter before administration,guinea pigs; [11],2.6 mm
same,Decreased pupillary light reflex,guinea pigs; [11],3/3
same,Measurement time of maximum pupil diameter,guinea pigs; [11],1 h
same,Maximum pupil diameter,guinea pigs; [11],4.9 mm
